Data on 19 compounds can be found in patent US20070093476A1, “Novel compounds and their use in medicine,as antidiabetic and hypolipidemic agents, process for their preparation and pharmaceutical compositions containing them” (priority 2003, published 2007).

Where a name gives a salt, the structure may show the parent alone. Read-outs that look alike come from different tables or passages of the source.

One data set concerns Swiss albino mice. The data set is described as follows: Plasma triglyceride lowering activity in Swiss albino mice. In kind it is in vivo. To be noted: for inhibition in vivo at 3 mg/kg/day: Mus musculus, 144 h, read-out: % of Reduction in Triglyceride. The method, then: b) Plasma Triglyceride and Total Cholesterol Lowering Activity in Swiss Albino Mice and Guinea Pigs
Male Swiss albino mice (SAM) and male Guinea pigs are obtained from NIN and housed in DRF animal house. All these animals are maintained under 12 hour light and dark cycle at 25±1° C. Animals are given standard laboratory chow (NIN, Hyderabad, India) and water, ad libitum. SAM of 20-25 g body weight range and Guinea pigs of 500-700 g body weight range are used (Oliver, P., Plancke, M. O., Marzin, D., Clavey, V., Sauzieres, J and Fruchart, J. C. Effects of fenofibrate, gemfibrozil and nicotinic acid on plasma lipoprotein levels in normal and hyperlipidemic mice. Atherosclerosis. 1988. 70 : 107-114).
The test compounds can be administered orally to Swiss albino mice at 0.3 to 30 mg/kg/day dose for 6 days. Control mice are treated with vehicle (0.25% Carboxymethylcellulose; dose 10 ml/kg). The test compounds are administered orally to Guinea pigs at 0.3 to 30 mg/kg/day dose for 6 days. Control animals are treated with vehicle (0.25% Carboxymethylcellulose; dose 5 ml/kg).
The blood samples can be collected in fed state 1 hour after drug administration on 0 and 6 day of treatment. The blood can be collected from the retro-orbital sinus through heparinised capillary in EDTA containing tubes. After centrifugation, plasma sample was separated for triglyceride and total cholesterol (Wieland, O. Methods of Enzymatic analysis. Bergermeyer, H. O., Ed., 1963. 211-214; Trinder, P. Ann. Clin. Biochem. 1969. 6 : 24-27). Measurement of plasma triglyceride, total cholesterol and HDL are done using commercial kits (Dr. Reddy's Diagnostic Division, Hyderabad, India).

Setting [1] is: Swiss albino mice, 3 mg/kg/d oral, 6 days.

In the case of `CC(C)(Oc1ccc(CCCOc2ccc(-c3ccccc3)cc2)cc1)C(=O)O` [Example 63, 2-{4-[3-(Biphenyl-4-yloxy)-propyl]-phenoxy}-2-methyl-propanoic acid], the melting point fell in the range of 130 to 133 °C.

`CCOC(Cc1ccc(NCCCN2CCc3ccccc32)cc1)C(=O)O` (stereo not drawn) (as salt: salt) [Example 52, 2-Ethoxy-3-[4-{3-2,3-dihydroindol-1-yl)propylamino}phenyl]propanoic acid Arginine salt] registered a melting point of 130 to 132 °C.

`CC(C)(Oc1ccc(OCc2ccc3cc(OS(C)(=O)=O)ccc3c2)cc1)C(=O)O` [Example 37, 2-Methyl-2-[4-{6-methanesulfonyloxynapth-2-ylmethoxy}phenoxy]propanoic acid] registered a melting point of 147 to 149 °C. In the data set with Swiss albino mice (setting [1]), the inhibition in vivo at 3 mg/kg/day amounted to 30%.

On to `CC(C)(Oc1cccc(CCCOc2ccc(OS(C)(=O)=O)cc2)c1)C(=O)O` [Example 42, 2-Methyl-2-[3-{3-(4-methanesulfonyloxyphenoxy)propyl}phenoxy]propanoic acid], for which the melting point is 93 to 95 °C.

The compound `CCOC(Cc1ccc(NCCCC2CCc3cc(OS(C)(=O)=O)ccc3C2)cc1)C(=O)O` (stereo not drawn) (as salt: salt) [Example 54, 2-Ethoxy-3-[4-{3-(6-methanesulfonyloxy-1,2,3,4-tetrahydronapth-2-yl)propylamino}phenyl]propanoic acid Arginine salt] had a melting point of 115 to 117 °C.

Regarding “2-Methyl-2-[3-{3-(3-methanesulfonyloxyphenoxy)propyloxy}phenoxy]propanoic acid Arginine salt [Example 61]”, the “% of Reduction in Triglyceride” value in the data set on Swiss albino mice (setting [1]) amounted to 51%.

The compound `CCOC(=O)C(C)(C)Oc1ccc(NCc2ccc3cc(OS(C)(=O)=O)ccc3c2)cc1` [Example 4, Ethyl 2-methyl-2-[4-{6-methanesulfonyloxynapth-2-ylmethylamino}phenoxy]propanoate] had a melting point of 116 to 118 °C.

For the compound `CC(C)(Oc1ccc(NCc2ccc3cc(OS(C)(=O)=O)ccc3c2)cc1)C(=O)O` [Example 26, 2-Methyl-2-[4-(6-methanesulfonyloxynapth-2-ylmethylamino}phenoxy]propanoic acid], the melting point fell in the range of 182 to 184 °C. The inhibition in vivo at 3 mg/kg/day in the data set on Swiss albino mice (setting [1]) worked out at 10%.

Consider `CCOC(Cc1ccc(NCCCN2CCCc3ccccc32)cc1)C(=O)O` (stereo not drawn) (as salt: salt) [Example 55, 2-Ethoxy-3-[4-{3-1,2,3,4-tetrahydroquinolyn-1-yl)propylamino}phenyl]propanoic acid Arginine salt], for which the melting point fell in the range of 134 to 136 °C.

Turning to `CCOC(Cc1ccc(NCCCC2CCc3cc(OS(C)(=O)=O)ccc3C2)cc1)C(=O)O` (stereo not drawn) [Example 54, 2-Ethoxy-3-[4-{3-(6-methanesulfonyloxy-1,2,3,4-tetrahydronapth-2-yl)propylamino}phenyl]propanoic acid Arginine salt], the inhibition in vivo at 3 mg/kg/day with Swiss albino mice (po) stood at 43%.

In turn, `CC(C)(C)OC(=O)Nc1ccc(OCCCc2ccc(OC(C)(C)C(=O)O)cc2)cc1` [Example 96, 2-Methyl-2-[4-{3-(4-(tert-butyloxycarbonylamino)phenoxy)propyl}phenoxy]propanoic acid] came in with a melting point of 132 to 134 °C.

For “2-Methyl-2-[3-{3-(4-methanesulfonyloxyphenoxy)propyloxy}phenoxy]propanoic acid Arginine salt [Example 66]”, the “% of Reduction in Triglyceride” value with Swiss albino mice (setting [1]) turned out to be 71%.

`CCOC(CCCc1ccc(NCc2ccc3cc(OS(C)(=O)=O)ccc3c2)cc1)C(=O)O` (stereo not drawn) (as salt: salt) [Example 46, 2-Ethoxy-5-[4-{6-methanesulfonyloxynapth-2-ylmethylamino}phenyl]pentatonic acid Arginine salt] came in with a melting point of 118 to 120 °C.

As for `CO[C@@H](Cc1ccc(NCCCn2ccc3ccccc32)cc1)C(=O)O` (as salt: salt) [Example 48, (S)-2-Methoxy-3-[4-{3-(indol-1-yl)propylamino}phenyl]propanoic acid Arginine salt], the melting point is 105 °C.

Regarding `CCOC(Cc1ccc(NCCCn2ccc3ccccc32)cc1)C(=O)O` (stereo not drawn) (as salt: salt) [Example 47, 2-Ethoxy-3-[4-{3-(indol-1-yl)propylamino}phenyl]propanoic acid Arginine salt], the melting point is 130 °C.

`CC(C)(Oc1ccc(CCCOc2ccc(NS(C)(=O)=O)cc2)cc1)C(=O)O` [Example 97, 2-Methyl-2-[4-{3-(4-(methanesulfonylamino)phenoxy)propyl}phenoxy]propanoic acid] yielded a melting point of 122 to 124 °C.

As to `CCOC(Cc1ccc(NCC2CCc3cc(OS(C)(=O)=O)ccc3C2)cc1)C(=O)O` (stereo not drawn) (as salt: salt) [Example 53, 2-Ethoxy-3-[4-{(6-methanesulfonyloxy-1,2,3,4-tetrahydronapth-2-yl)methylamino}phenyl]propanoic acid Arginine salt], the melting point lay within 96 to 98 °C.

Consider `CCO[C@@H](Cc1ccc(NCCCn2ccc3cc(OS(C)(=O)=O)ccc32)cc1)C(=O)O` (as salt: salt) [Example 49, (S)-2-Ethoxy-3-[4-{3-(5-methanesulfonyloxyindol-1-yl)propylamino}phenyl]propanoic acid Arginine salt], for which the melting point fell in the range of 102 to 104 °C.

As to `CO[C@@H](Cc1ccc(NCCCn2ccc3cc(OS(C)(=O)=O)ccc32)cc1)C(=O)O` (as salt: salt) [Example 50, (S)-2-Methoxy-3-[4-{3-(5-methanesulfonyloxyindol-1-yl)propylamino}phenyl]propanoic acid Arginine salt], the melting point lay in the range of 102 to 104 °C.
